This assay has as its target cGMP-specific 3',5'-cyclic phosphodiesterase (Homo sapiens, UniProt O76074). As to the kind of experiment: Inhibition Assay: To determine their in vitro action on human PDE 5, the test substances are dissolved in 100% DMSO and serially diluted. Typically, dilution series (1:3) from 200 uM to 0.091 uM are prepared (resulting final concentrations in the test: 4 uM to 0.0018 uM). In each case 2 ul of the diluted substance solutions are placed into the wells of microtitre plates (Isoplate-96/200W; Perkin Elmer). Subsequently, 50 ul of a dilution of the above-described PDE 5 preparation are added. The dilution of the PDE 5 preparation is chosen such that during the later incubation less than 70% of the substrate are converted (typical dilution: 1:100; dilution buffer: 50 mM Tris/hydrochloric acid pH 7.5, 8.3 mM magnesium chloride, 1.7 mM EDTA, 0.2% BSA). The substrate, [8-3H] cyclic guanosine-3',5'-monophosphate (1 uCi/ul; Perkin Elmer) is diluted 1:2000 with assay buffer (50 mM tris/hydrochloric acid pH 7.5, 8.3 mM magnesium chloride, 1.7 mM EDTA) to a concentration of 0.0005 uCi/ul. By addition of 50 ul (0.025 uCi) of the diluted substrate, the enzyme reaction is finally started. The test mixtures are incubated at room temperature for 60 min and the reaction is stopped by adding 25 ul of a suspension of 18 mg/ml yttrium scintillation proximity beads in water (phosphodiesterase beads for SPA assays, RPNQ 0150, Perkin Elmer). […]. For orientation: In a scintillation proximity assay essentially only radioactivity close to the scintillant gives light.

The source of these data is ChEMBL document CHEMBL5725254, “Substituted annulated triazines and use thereof” (2016).

pIC50: −log10 of the molar value.

For orientation: pIC50 means −log10 of the IC50, conventionally taken in molar units.

Consider `CC1(C)C(=O)Nc2nc(-c3nn(Cc4ccccc4F)c4ncc(F)cc34)nc(CNC(=O)C3CC3)c21`, for which the pIC50 is 6.24.
